The values below come from patent publication US7109193B2, “Tricyclic diazepines tocolytic oxytocin receptor antagonists” (Wyeth, priority 2001, dated 2006).

As a reminder, the inhibition is the relative decrease from the control value, in per cent.

For the experiment, the target named is T1, human vasopressin V2 receptor subtype (Homo sapiens, UniProt P30518).
T1 construct: host or cells: CHO cells (pZeoSV vector)
The experiment is described as follows: Vasopressin binding in Chinese Hamster Ovary cell membranes expressing human vasopressin V2 subtype receptors. The settings on record: 100 nM, CHO cell membranes, [3H]arginine vasopressin, values without parentheses. In a few lines: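 Radioligand displacement on membranes from CHO cells stably expressing human V2 receptor, 25 to 50 μg protein/well, in 50 mM Tris-HCl pH 7.4 with MgCl2, BSA and protease inhibitors. [^3H]arginine vasopressin (8 nM working solution) incubated 60 min at room temperature; bound label measured by filtration and scintillation counting.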

Structures are written as SMILES.

T1 sequence (P30518 whole entry): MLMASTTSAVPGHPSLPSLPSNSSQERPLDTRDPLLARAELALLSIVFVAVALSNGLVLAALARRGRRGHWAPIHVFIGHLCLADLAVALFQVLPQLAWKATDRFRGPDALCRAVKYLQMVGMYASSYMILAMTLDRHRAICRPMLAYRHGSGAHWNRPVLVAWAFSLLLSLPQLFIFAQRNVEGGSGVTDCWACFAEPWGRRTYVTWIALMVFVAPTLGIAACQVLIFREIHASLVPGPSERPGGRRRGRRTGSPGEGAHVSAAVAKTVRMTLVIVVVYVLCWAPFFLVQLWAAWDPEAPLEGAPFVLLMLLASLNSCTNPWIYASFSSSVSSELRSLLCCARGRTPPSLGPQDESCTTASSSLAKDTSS

As to `Cc1ccccc1-c1ccc(C(=O)N2Cc3ccc(C(=O)N4CCCN(C)CC4)n3Cc3ccccc32)cc1` [Example 65, {10-[(2′-Methyl[1,1′-biphenyl]-4-yl)carbonyl]-10,11-dihydro-5H-pyrrolo[2,1-c][1,4]benzodiazepin-3-yl}(4-methyl-1,4-diazepan-1-yl)methanone], the inhibition at 0.1 µM amounted to 6%. With `COc1cc(C(=O)N2Cc3ccc(C(=O)N4CCN(CCN5CCOCC5)CC4)n3Cc3ccccc32)ccc1-n1c(C)ccc1C` [Example 317, {10-[4-(2,5-Dimethyl-1H-pyrrol-1-yl)-3-methoxybenzoyl]-10,11-dihydro-5H-pyrrolo[2,1-c][1,4]benzodiazepin-3-yl}{4-[2-(4-morpholinyl)ethyl]-1-piperazinyl}methanone], the inhibition at 0.1 µM came out at 15%. As for `COc1cc(C(=O)N2Cc3ccc(C(=O)N4CCN(CCCN(C)C)CC4)n3Cc3ccccc32)ccc1-c1cccc2ccccc12` [Example 253, {4-[3-(Dimethylamino)propyl]-1-piperazinyl}{10-[3-methoxy-4-(1-naphthyl)benzoyl]-10,11-dihydro-5H-pyrrolo[2,1-c][1,4]benzodiazepin-3-yl}methanone], the inhibition at 0.1 µM is -10%. In the case of `COc1ccccc1-c1ccc(C(=O)N2Cc3ccc(C(=O)n4ccnc4)n3Cc3ccccc32)cc1C` [Example 292, 1H-Imidazol-1-yl-{10-[(2′-methoxy-2-methyl[1,1′-biphenyl]-4-yl)carbonyl]-10,11-dihydro-5H-pyrrolo[2,1-c][1,4]benzodiazepin-3-yl}methanone], the inhibition at 0.1 µM is -7%. For the compound `Cc1ccccc1-c1ccc(C(=O)N2Cc3ccc(C(=O)N4CCN(CCCN(C)C)CC4)n3Cc3ccccc32)cc1` [Example 249, {4-[3-(Dimethylamino)propyl]-1-piperazinyl}{10-[(2′-methyl[1,1′-biphenyl]-4-yl)carbonyl]-10,11-dihydro-5H-pyrrolo[2,1-c][1,4]benzodiazepin-3-yl}methanone], the inhibition at 0.1 µM amounted to 9%. Turning to `Cc1cc(C(=O)N2Cc3ccc(C(=O)N4CCN(CCCN(C)C)CC4)n3Cc3ccccc32)ccc1-c1ccccc1C(F)(F)F` [Example 257, {10-[(2-Methyl-2′-trifluoromethyl-[1,1′-biphenyl]-4-yl)carbonyl]-10,11-dihydro-5H-pyrrolo[2,1-c][1,4]benzodiazepin-3-yl}{4-[3-(dimethylamino)propyl]-1-piperazinyl}-methanone], for the setting “0.1 µM”, the “V2 % inhibition @ 100 nM” value is given as 16%. In the case of `Cc1ccccc1-c1ccc(C(=O)N2Cc3ccc(C(=O)N4CCN(C)CC4)n3Cc3ccccc32)cc1C` [Example 50, {10-[(2,2′-Dimethyl[1,1′-biphenyl]-4-yl)carbonyl]-10,11-dihydro-5H-pyrrolo[2,1-c][1,4]benzodiazepin-3-yl}(4-methyl-1-piperazinyl)methanone], the inhibition at 0.1 µM was found to be 15%. In the case of `COc1ccccc1-c1ccc(C(=O)N2Cc3ccc(C(=O)N[C@@H](CCCCNC(=O)OC(C)(C)C)C(N)=O)n3Cc3ccccc32)cc1OC` [Example 303, tert-Butyl (5S)-6-amino-5-[({10-[(2,2′-dimethoxy[1,1′-biphenyl]-4-yl)carbonyl]-10,11-dihydro-5H-pyrrolo[2,1-c][1,4]benzodiazepin-3-yl}carbonyl)amino]-6-oxohexylcarbamate], the inhibition at 0.1 µM amounted to 14%. Consider `COc1cccc(-c2ccc(C(=O)N3Cc4ccc(C(=O)N5CCCN(C)CC5)n4Cc4ccccc43)cc2OC)c1` [Example 70, {10-[(2,3′-Dimethoxy[1,1′-biphenyl]-4-yl)carbonyl]-10,11-dihydro-5H-pyrrolo[2,1-c][1,4]benzodiazepin-3-yl}(4-methyl-1,4-diazepan-1-yl)methanone], for which the inhibition at 0.1 µM turned out to be 11%. As for `COc1ccccc1-c1ccc(C(=O)N2Cc3ccc(C(=O)N[C@@H]4CN5CCC4CC5)n3Cc3ccccc32)cc1OC` [Example 300, N-[(3S)-1-Azabicyclo[2.2.2]oct-3-yl]-10-[(2,2′-dimethoxy[1,1′-biphenyl]-4-yl)carbonyl]-10,11-dihydro-5H-pyrrolo[2,1-c][1,4]benzodiazepine-3-carboxamide], the inhibition at 0.1 µM was found to be 19%.

For the compound `COc1ccccc1-c1ccc(C(=O)N2Cc3ccc(C(=O)N[C@H]4CN5CCC4CC5)n3Cc3ccccc32)cc1` [Example 296, N-[(3R)-1-Azabicyclo[2.2.2]oct-3-yl]-10-[(2′-methoxy[1,1′-biphenyl]-4-yl)carbonyl]-10,11-dihydro-5H-pyrrolo[2,1-c][1,4]benzodiazepine-3-carboxamide], the inhibition at 0.1 µM came out at 24%. Regarding `COc1cc(C(=O)N2Cc3ccc(C(=O)N4CCN(C(C)C)CC4)n3Cc3ccccc32)ccc1-n1c(C)ccc1C` [Example 319, {10-[4-(2,5-Dimethyl-1H-pyrrol-1-yl)-3-methoxybenzoyl]-10,11-dihydro-5H-pyrrolo[2,1-c][1,4]benzodiazepin-3-yl}(4-isopropyl-1-piperazinyl)methanone], the inhibition at 0.1 µM amounted to 13%. Turning to `COc1cc(-c2ccccc2C)c(Cl)cc1C(=O)N1Cc2ccc(C(=O)N[C@@H](CCCCNC(=O)OC(C)(C)C)C(N)=O)n2Cc2ccccc21` [Example 304, tert-Butyl (5S)-6-amino-5-[({10-[(6-chloro-3-methoxy-2′-methyl[1,1′-biphenyl]-4-yl)carbonyl]-10,11-dihydro-5H-pyrrolo[2,1-c][1,4]benzodiazepin-3-yl}carbonyl)amino]-6-oxohexylcarbamate], the inhibition at 0.1 µM turned out to be 19%. In the case of `COc1cccc(-c2ccc(C(=O)N3Cc4ccc(C(=O)N5CCCN(C)CC5)n4Cc4ccccc43)cc2C)c1` [Example 64, {10-[(3′-Methoxy-2-methyl[1,1′-biphenyl]-4-yl)carbonyl]-10,11-dihydro-5H-pyrrolo[2,1-c][1,4]benzodiazepin-3-yl}(4-methyl-1,4-diazepan-1-yl)methanone], the inhibition at 0.1 µM was determined as 19%. Take `COc1cc(C(=O)N2Cc3ccc(C(=O)N4CCCN(C)CC4)n3Cc3ccccc32)ccc1-c1ccccc1C` [Example 66, {10-[(2-Methoxy-2′-methyl[1,1′-biphenyl]-4-yl)carbonyl]-10,11-dihydro-5H-pyrrolo[2,1-c][1,4]benzodiazepin-3-yl}(4-methyl-1,4-diazepan-1-yl)methanone]: the inhibition at 0.1 µM was found to be 20%. On to `COc1ccccc1-c1ccc(C(=O)N2Cc3ccc(C(=O)N[C@@H](Cc4c[nH]cn4)C(N)=O)n3Cc3ccccc32)cc1C` [Example 288, N-[(1S)-2-Amino-1-(1H-imidazol-4-ylmethyl)-2-oxoethyl]-10-[(2′-methoxy-2-methyl[1,1′-biphenyl]4-yl)carbonyl]-10,11-dihydro-5H-pyrrolo[2,1-c][1,4]benzodiazepine-3-carboxamide], for which the inhibition at 0.1 µM worked out at 32%. Regarding `CCOc1ccccc1-c1cc(OC)c(C(=O)N2Cc3cccn3Cc3ccccc32)cc1Cl` [Example 17, 10-{[6-Chloro-3-methoxy-2′-ethoxy[1,1′-biphenyl]-4-yl]carbonyl}-10,11-dihydro-5H-pyrrolo[2,1-c][1,4]benzodiazepine], the inhibition at 0.1 µM worked out at 32%. As for `Cc1cc(C(=O)N2Cc3cccn3Cc3ncccc32)ccc1-c1ccccc1C(F)(F)F` [Example 323F, (2-Methyl-2′-trifluoromethyl-[1,1′-biphenyl]-4-yl)-(4H,10H-3a,5,9-triaza-benzo[f]azulen-9-yl)-methanone], the inhibition at 0.1 µM turned out to be 5%. Take `COc1ccccc1-c1ccc(C(=O)N2Cc3ccc(C(=O)N[C@@H]4CN5CCC4CC5)n3Cc3ccccc32)cc1C` [Example 295, N-[(3S)-1-Azabicyclo[2.2.2]oct-3-yl]-10-[(2′-methoxy-2-methyl[1,1′-biphenyl]-4-yl)carbonyl]-10,11-dihydro-5H-pyrrolo[2,1-c][1,4]benzodiazepine-3-carboxamide]: the inhibition at 0.1 µM stood at 22%.

Turning to `COc1cc(C(=O)N2Cc3ccc(C(=O)NCCN4CCCCC4)n3Cc3ccccc32)ccc1-n1c(C)ccc1C` [Example 314, 10-[4-(2,5-Dimethyl-1H-pyrrol-1-yl)-3-methoxybenzoyl]-N-[2-(1-piperidinyl)ethyl]-10,11-dihydro-5H-pyrrolo[2,1-c][1,4]benzodiazepine-3-carboxamide], the inhibition at 0.1 µM amounted to 7%.

Turning to `Cc1cc(C(=O)N2Cc3cccn3Cc3ccccc32)ccc1-c1ccncc1` [Example 31, [3-Methyl-4-(4-pyridinyl)phenyl]-[10,11-dihydro-5H-pyrrolo[2,1-c][1,4]benzodiazepin-10-yl]methanone], the inhibition at 0.1 µM was found to be 31%.

Turning to `COc1cccc(-c2cc(OC)c(C(=O)N3Cc4ccc(C(=O)N[C@@H](CCCCNC(=O)OC(C)(C)C)C(N)=O)n4Cc4ccccc43)cc2Cl)c1` [Example 302, tert-Butyl (5S)-6-amino-5-[({10-[(6-chloro-3,3′-dimethoxy[1,1′-biphenyl]-4-yl)carbonyl]-10,11-dihydro-5H-pyrrolo[2,1-c][1,4]benzodiazepin-3-yl}carbonyl)amino]-6-oxohexylcarbamate], the inhibition at 0.1 µM came to 17%. On the same count and under the same terms, as for `COc1cc(C(=O)N2Cc3ccc(C(=O)N(C)CCN(C)C)n3Cc3ccccc32)ccc1-n1c(C)ccc1C` [Example 309, N-[2-(Dimethylamino)ethyl]-10-[4-(2,5-dimethyl-1H-pyrrol-1-yl)-3-methoxybenzoyl]-N-methyl-10,11-dihydro-5H-pyrrolo[2,1-c][1,4]benzodiazepine-3-carboxamide], the figure is 7%; as for `COc1cc(-c2ccccc2C)c(Cl)cc1C(=O)N1Cc2ccc(C(=O)N3CCN(CCCN(C)C)CC3)n2Cc2ccccc21` [Example 251, {10-[(6-Chloro-3-methoxy-2′-methyl[1,1′-biphenyl]-4-yl)carbonyl]-10,11-dihydro-5H-pyrrolo[2,1-c][1,4]benzodiazepin-3-yl}{4-[3-(dimethylamino)propyl]-1-piperazinyl}methanone], 24%; as for `COc1ccccc1-c1ccc(C(=O)N2Cc3ccc(C(=O)NCCCN(C)C)n3Cc3ccccc32)cc1C` [Example 72, N-[3-(Dimethylamino)propyl]-10-[(2′-methoxy-2-methyl[1,1′-biphenyl]-4-yl)carbonyl]-10,11-dihydro-5H-pyrrolo[2,1-c][1,4]benzodiazepine-3-carboxamide], 26%.
